Measured values taken from patent US20060046968A1, “Prodrug substituted benzoxazoles as estrogenic agents” (priority 2004, published 2006).

Assays:
[1] = test system: human endometrial tissue implanted into ovariectomized athymic nude mice; test: Endometriosis test procedure: human endometrial tissue implanted into nude mice; format: in vivo, mouse
Protocol: This procedure is slightly modified from a published method [Bruner-Tran. et al., Journal of Clinical Investigation 99: 2851-2857 (1997)]. […] Lesions are allowed to establish for at least 10 days, then oral daily dosing begins and continues for at least 15 days. It should be noted that all mice have visible lesions at the start of dosing. At necropsy, the number of mice with lesions is determined, as well as the lesions per mouse.

Female Mongolian gerbils = test: Transient global ischemia in the Mongolian gerbil: neurogranin mRNA in hippocampus; format: in vivo; details: gerbil hippocampus after 5 min global ischemia; s.c. daily
Protocol: Transient global ischemia in the Mongolian gerbil. The effect of test compounds on preventing or treating brain injury in response to oxygen deprivation/reperfusion were measured using the following test procedure.
Female Mongolian gerbils (60-80 g; Charles River Laboratories, Kingston, N.Y.) were housed in the Wyeth-Ayerst animal care facility Association for Assessment and Acreditation of Laboratory Animal Care (AAALAC) certified with a 12-hour light, 12-hour dark photoperiod and free access to tap water and a low-estrogen casein diet (Purina®; Richmond, Ind.). After acclimation (3-5 days), gerbils were anesthetized with isoflurane (2-3% mixture with O2), ovariectomized (Day 0). […] On Day 6, gerbils (n=4-5/group) were anesthetized with isoflurane, the common carotid arteries visualized via a mid-line neck incision and both arteries simultaneously occluded for 5 minutes with non-traumatic micro aneurysm clips. […]
The degree of neuronal protection was evaluated by in situ hybridization analysis of neurogranin mRNA. […]
Neurogranin mRNA was selected for these studies because it is highly expressed in the hippocampal neurons including CA1, but absent in glia and other cell types present in this brain region. […] The results from 6 sections (40 μm apart) per animal were averaged and statistically evaluated. […]

Lewis rats = test: Lewis rat adjuvant-induced arthritis, treatment protocol: tarsal joint histology (synovitis, Mankin); format: in vivo; details: 50 mg/kg, tarsal joints

## C=Cc1cc(O)cc2nc(-c3ccc(O)c(F)c3)oc12 [Example 24, 2-(3-FLUORO-4-HYDROXYPH ENYL)-7-VI NYL-1,3-BENZOXAZOL-5-OL]
[1]; 10 mg/kg, evaluated three times
  lesions at necropsy versus vehicle: fewer lesions at necropsy than those mice dosed with vehicle
[1]; Study 1, 10 mg/kg oral daily
  lesions found per animal: one lesion
  mice with lesion regression: four of six mice
[1]; Study 1, 10 mg/kg oral daily, vehicle: four of four mice
  mice with any lesions at necropsy: two of six mice
Female Mongolian gerbils
  Neurogranin mRNA (mean ± stdev): 0.0 arbitrary units
Lewis rats
  Cartilage Cells (0-3), mean ± SD: 0.83 ± 0.75
  Cartilage Structure (0-6), mean ± SD: 1.58 ± 0.49
  Fibroplasia (0-3), mean ± SD: 0.42 ± 0.80
  Inflammatory Cells (0-3), mean ± SD: 1.33 ± 0.41
  Pannus (0-1), mean ± SD: 0.08 ± 0.20
  Saffranin-O/Fast Green Staining (0-4), mean ± SD: 1.25 ± 0.69
  Tidemark Integrity (0-1): 0
  Total Mankin Score (0-14), mean ± SD: 3.67 ± 1.86
  Total Synovitis Score (0-10), mean ± SD: 3.25 ± 1.54
